# How the values were obtained:
# [1] = tested on: coneworm, Dioryctria spp.; conditions: systemic activity in pine; cited from earlier work
# Ips engravers beetles = experiment: Single-tree protection study (Example 2): Ips attack, tree mortality and gallery construction on standing loblolly pine; type: in vivo; conditions: for Mean # of Egg Galleries Total Number / Mean # of Egg Galleries With Brood No. / Mean # of Egg Galleries Without Brood No. / Mean Length of Egg Galleries Total Length / Mean Length of Egg Galleries With Brood cm / Mean Length of Egg Galleries Without Brood cm: bolts cut after tree mortality or at the end of the trial; for Mean # of Nuptial Chambers With Egg Galleries % of Total / Mean # of Nuptial Chambers Without Egg Galleries % of Total / Mean # of Nuptial Chambers Without Egg Galleries No. / Mean # of Nuptial Chambers with Egg Galleries No. / Mean Total # of Nuptial Chambers: bolts cut after tree mortality or the end of the trial
# Description: Two 20-year-old, recently thinned loblolly pine plantations were selected on land owned by Temple-Inland Forest Products Corporation about 5 km south of Wells (Angelina County), Tex. Trees in one plantation were injected for use in a bolt study (Example 1). Trees in a 0.2 ha section of the second plantation were injected as part of a single-tree protection study (Example 2). A staging area also was set up in the second plantation where bolts from the first plantation were exposed to bark beetles and wood borers.
# Loblolly pine, 15-20 cm DBH, were selected in the second plantation in March 2004. Each treatment (the same as those used in Example 1) was injected into four cardinal points about 0.3 m above the ground on each of 6 trees in April (16th-23rd) using the Arborjet Tree IV™ system. After 5 weeks post-injection (May 28), frills were cut with a hatchet into the sapwood between the injection points near the base of the tree. A cellulose sponge was inserted into each cut and loaded with 10 ml of a 4:1 mix of sodium N-methyldithiocarbamate (MS) (Woodfume®; Osmose, Inc., Buffalo, N.Y.) plus dimethyl sulfoxide (DMSO) (Aldrich Chemical) (Roton 1987, Strom et al. 2004). This method reduces resin to near zero in 1-2 weeks. The intent was to stress the tree and make it susceptible to attack by bark beetles without killing it.
# Pheromone packets containing racemic ipsdienol + lanerione, ipsenol or cis-verbenol were attached (June 7) atop 3 m stakes evenly spaced in between and around the study trees to encourage attack by the three Ips engraver species. […] Thus, ipsdienol and cis-verbenol pheromone baits were deployed on all stakes on June 17th. The baits were changed every 4 weeks.
# A clear panel of acetate (10 cm wide by 25 cm long) coated with Stickem Special® was attached 2 m high on standing trees after deployment of pheromone baits to monitor arrival of bark beetles. The traps were left in place for two weeks.
# Three weeks after pheromone deployment (June 28), each tree was evaluated by marking a 30 cm section of bole at a height of 3 m. All visible Ips attacks and cerambycid egg niches were counted within the marked area. The number of trees with fading crowns also was recorded. Thereafter, the trees were evaluated weekly for crown fading. When mortality did occur, the trees were felled and two bolts taken and evaluated for attack success and gallery length as described in Example 1. All remaining trees were felled 66 days (Aug. 9) after initial pheromone deployment when no additional trees had died for 3 weeks. Treatment efficacy was determined by comparing tree survival, beetle attacks and egg gallery length on treated and untreated bolts. As before, data were transformed and analyzed by GLM and the Fisher's Protected LSD test using the Statview statistical program.
# [2] = tested on: pine wood nematode, Bursaphelenchus xylophilis; conditions: cited from earlier work
substance,measurement,setting,value
4″-deoxy-4″-N-methylamino avermectin B1a/B1b [Emamectin],efficacy against coneworm,[1],highly effective
same,Percentage of Trees With Fading Crowns,Ips engravers beetles; after 24 days,0.0 a %
same,Percentage of Trees With Fading Crowns,Ips engravers beetles; after 32 days,0.0 a %
same,Percentage of Trees With Fading Crowns,Ips engravers beetles; after 39 days,0.0 a %
same,Percentage of Trees With Fading Crowns,Ips engravers beetles; after 46 days,0.0 a %
same,Percentage of Trees With Fading Crowns,Ips engravers beetles; after 52 days,0.0 a %
same,Percentage of Trees With Fading Crowns,Ips engravers beetles; after 66 days,0.0 a %
same,Mean # of Egg Galleries Total Number,Ips engravers beetles; bolt height 3 m,0.0 a
same,Mean # of Egg Galleries With Brood No.,Ips engravers beetles; bolt height 3 m,0.0 a
same,Mean # of Egg Galleries Without Brood No.,Ips engravers beetles; bolt height 3 m,0.0 a
same,Mean Length of Egg Galleries Total Length,Ips engravers beetles; bolt height 3 m,0.0 a cm
same,Mean Length of Egg Galleries With Brood cm,Ips engravers beetles; bolt height 3 m,0.0 a cm
same,Mean Length of Egg Galleries Without Brood cm,Ips engravers beetles; bolt height 3 m,0.0 a cm
same,Mean # of Egg Galleries Total Number,Ips engravers beetles; bolt height 8 m,0.0 a
same,Mean # of Egg Galleries With Brood No.,Ips engravers beetles; bolt height 8 m,0.0 a
same,Mean # of Egg Galleries Without Brood No.,Ips engravers beetles; bolt height 8 m,0.0 a
same,Mean Length of Egg Galleries Total Length,Ips engravers beetles; bolt height 8 m,0.0 a cm
same,Mean Length of Egg Galleries With Brood cm,Ips engravers beetles; bolt height 8 m,0.0 a cm
same,Mean Length of Egg Galleries Without Brood cm,Ips engravers beetles; bolt height 8 m,0.0 a cm
same,Mean # of Nuptial Chambers With Egg Galleries % of Total,Ips engravers beetles; bolt height 3 m,0.0%
same,Mean # of Nuptial Chambers Without Egg Galleries % of Total,Ips engravers beetles; bolt height 3 m,100.0%
same,Mean # of Nuptial Chambers Without Egg Galleries No.,Ips engravers beetles; bolt height 3 m,3.0 ab
same,Mean # of Nuptial Chambers with Egg Galleries No.,Ips engravers beetles; bolt height 3 m,0.0 a
same,Mean Total # of Nuptial Chambers,Ips engravers beetles; bolt height 3 m,3.0 a
same,Mean # of Nuptial Chambers With Egg Galleries % of Total,Ips engravers beetles; bolt height 8 m,0.0%
same,Mean # of Nuptial Chambers Without Egg Galleries % of Total,Ips engravers beetles; bolt height 8 m,100.0%
same,Mean # of Nuptial Chambers Without Egg Galleries No.,Ips engravers beetles; bolt height 8 m,1.3 ab
same,Mean # of Nuptial Chambers with Egg Galleries No.,Ips engravers beetles; bolt height 8 m,0.0 a
same,Mean Total # of Nuptial Chambers,Ips engravers beetles; bolt height 8 m,1.3 a
same,attacks on cut bolts compared to the check,"Ips engravers beetles; cut bolts, both heights",significantly fewer
same,success of attacks that did occur,"Ips engravers beetles; cut bolts, both heights",completely unsuccessful
same,"Mean # of Attacks/0.3 Bole Section at 3 m after 24 days, Ips","Ips engravers beetles; standing loblolly pine, after 24 days",0.5 a
same,Mean # of Ips caught/Trap,"Ips engravers beetles; standing loblolly pine, trap 2 m high",1.2 a
same,Ips attacks compared to checks,"Ips engravers beetles; standing trees, at 3 m height",significantly fewer
same,trees with fading crowns (yellowing needles),"Ips engravers beetles; standing trees, first evaluation",None
same,tree survival,"Ips engravers beetles; standing trees, study discontinued after 66 days",all emamectin benzoate-treated trees survived
same,duration of protection,"[2]; pine, against pine wood nematode and coneworm",more than three years
same,efficacy against pine wood nematode,[2]; systemic activity in pine,highly effective

# — patent US8633167B2, “Method for the protection of trees” (Syngenta Crop Protection LLC, priority 2006, dated 2014)
